In US9611249B2, “1H-indazole-3-carboxamide compounds as glycogen synthase kinase 3 beta inhibitors” (AZIENDE CHIMICHE RIUNITE ANGELINI FRANCESCO A.C.R.A.F. …, priority 2012, dated 2017):

Legend:
PAK1 (h) = PAK1 (h) (Homo sapiens (Human), UniProt Q13153); assay: Kinase selectivity panel: PAK1 (h); type: biochemical; details: 10 μM in duplicate, read-out: % inhibition of control values
Procedure: (§1) (a) Compounds 1 and 2 were tested against a panel of 60 kinases in order to assess their selectivity. The assays were chosen taking into consideration the diversity of assay families.
(§2) Tested kinases were representative of following kinase sub-families: • protein-serine/threonine kinases; • protein-tyrosine kinases; • other kinases; and • atypical kinases.
(§3) Human recombinant kinases were incubated in the presence of specific peptide substrates plus ATP for different times (10, 15, 30, 60 or 90 minutes) at 22° C. Phosphorylated substrate was detected by LANCE or HTRF technology (CISBIO, MA, USA). The compounds were tested at 10 μM in duplicate.
(§4) The results are expressed as a percentage of inhibition of control specific activity obtained in the presence of the test compounds and are reported in the following Table 5.
(§5) (b) Compounds 3, 8, 29 and 31 were tested against the same panel of 60 kinases under the same conditions described above for compounds 1 and 2.
(§6) The results are expressed as a percent of inhibition of control specific activity obtained in the presence of the test compounds and are reported in the following Table 6.

smMLCK (h) (MYLK) = smMLCK (h) (MYLK) (Homo sapiens (Human), UniProt Q15746); assay: Kinase selectivity panel: smMLCK (h) (MYLK); type: biochemical; details: 10 μM in duplicate, read-out: % inhibition of control values
Procedure: as §1, §2, §3, §4, §5, §6

CaMK4 (h) = CaMK4 (h) (Homo sapiens (Human), UniProt Q16566); assay: Kinase selectivity panel: CaMK4 (h); type: biochemical; details: 10 μM in duplicate, read-out: % inhibition of control values
Procedure: as §1, §2, §3, §4, §5, §6

AurB/Aur1 kinase (h) = AurB/Aur1 kinase (h) (Homo sapiens (Human), UniProt Q96GD4); assay: Kinase selectivity panel: AurB/Aur1 kinase (h); type: biochemical; details: 10 μM in duplicate, read-out: % inhibition of control values
Chain of AurB/Aur1 kinase (h) (Q96GD4 whole entry): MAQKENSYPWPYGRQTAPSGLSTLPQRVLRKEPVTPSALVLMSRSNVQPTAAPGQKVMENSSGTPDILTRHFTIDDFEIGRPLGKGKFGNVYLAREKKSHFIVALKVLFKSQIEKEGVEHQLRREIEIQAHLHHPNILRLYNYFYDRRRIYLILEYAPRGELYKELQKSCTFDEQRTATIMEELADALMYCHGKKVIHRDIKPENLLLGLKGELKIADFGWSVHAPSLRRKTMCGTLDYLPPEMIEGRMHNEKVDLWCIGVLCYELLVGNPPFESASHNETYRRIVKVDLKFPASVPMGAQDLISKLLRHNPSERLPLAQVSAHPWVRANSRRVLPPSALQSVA
Procedure: as §1, §2, §3, §4, §5, §6

DYRK1a (h) = DYRK1a (h) (Homo sapiens (Human), UniProt Q13627); assay: Kinase selectivity panel: DYRK1a (h); type: biochemical; details: 10 μM in duplicate, read-out: % inhibition of control values
Procedure: as §1, §2, §3, §4, §5, §6

AurA/Aur2 kinase (h) = AurA/Aur2 kinase (h) (Homo sapiens (Human), UniProt O14965); assay: Kinase selectivity panel: AurA/Aur2 kinase (h); type: biochemical; details: 10 μM in duplicate, read-out: % inhibition of control values
Procedure: as §1, §2, §3, §4, §5, §6

p38gamma kinase (h) = p38gamma kinase (h) (Homo sapiens (Human), UniProt P53778); assay: Kinase selectivity panel: p38gamma kinase (h); type: biochemical; details: 10 μM in duplicate, read-out: % inhibition of control values
Procedure: as §1, §2, §3, §4, §5, §6

MSK1 (h) = MSK1 (h) (Homo sapiens (Human), UniProt O75582); assay: Kinase selectivity panel: MSK1 (h); type: biochemical; details: 10 μM in duplicate, read-out: % inhibition of control values
Procedure: as §1, §2, §3, §4, §5, §6

JAK2 (h) = JAK2 (h) (Homo sapiens (Human), UniProt O60674); assay: Kinase selectivity panel: JAK2 (h); type: biochemical; details: 10 μM in duplicate, read-out: % inhibition of control values
Chain of JAK2 (h) (O60674 whole entry): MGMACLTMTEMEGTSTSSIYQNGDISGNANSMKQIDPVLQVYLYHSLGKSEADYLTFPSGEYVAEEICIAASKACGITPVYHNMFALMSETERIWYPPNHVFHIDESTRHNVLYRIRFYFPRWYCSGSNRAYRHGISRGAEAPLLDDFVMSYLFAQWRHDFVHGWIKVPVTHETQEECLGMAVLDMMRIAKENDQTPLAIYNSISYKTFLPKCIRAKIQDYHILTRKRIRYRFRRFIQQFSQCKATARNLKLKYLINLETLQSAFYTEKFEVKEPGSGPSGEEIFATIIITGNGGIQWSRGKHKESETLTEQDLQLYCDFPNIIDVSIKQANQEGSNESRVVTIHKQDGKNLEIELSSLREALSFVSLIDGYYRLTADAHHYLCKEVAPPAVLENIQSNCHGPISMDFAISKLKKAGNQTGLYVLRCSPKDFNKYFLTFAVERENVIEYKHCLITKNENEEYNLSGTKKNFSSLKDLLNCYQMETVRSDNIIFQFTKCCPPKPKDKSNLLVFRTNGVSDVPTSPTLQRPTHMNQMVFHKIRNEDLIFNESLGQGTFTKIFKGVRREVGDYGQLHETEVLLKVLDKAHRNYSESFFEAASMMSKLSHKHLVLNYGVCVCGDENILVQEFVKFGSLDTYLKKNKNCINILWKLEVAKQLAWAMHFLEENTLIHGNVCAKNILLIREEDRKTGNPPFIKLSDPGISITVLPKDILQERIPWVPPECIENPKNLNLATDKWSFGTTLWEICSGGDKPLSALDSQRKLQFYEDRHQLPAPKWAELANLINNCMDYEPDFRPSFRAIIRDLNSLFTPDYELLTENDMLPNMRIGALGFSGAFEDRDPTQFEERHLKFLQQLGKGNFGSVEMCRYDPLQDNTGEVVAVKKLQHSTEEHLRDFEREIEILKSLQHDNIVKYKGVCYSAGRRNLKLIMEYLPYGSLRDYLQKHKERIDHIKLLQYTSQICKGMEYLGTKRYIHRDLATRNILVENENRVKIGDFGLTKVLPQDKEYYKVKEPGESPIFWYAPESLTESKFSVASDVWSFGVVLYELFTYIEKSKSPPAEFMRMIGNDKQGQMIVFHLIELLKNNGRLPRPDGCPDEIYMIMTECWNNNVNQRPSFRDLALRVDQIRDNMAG
Procedure: as §1, §2, §3, §4, §5, §6

NEK7 (h) = NEK7 (h) (Homo sapiens (Human), UniProt Q8TDX7); assay: Kinase selectivity panel: NEK7 (h); type: biochemical; details: 10 μM in duplicate, read-out: % inhibition of control values
Procedure: as §1, §2, §3, §4, §5, §6

PKCbeta 1 (h) = PKCbeta 1 (h) (Homo sapiens (Human), UniProt P05771); assay: Kinase selectivity panel: PKCbeta 1 (h); type: biochemical; details: 10 μM in duplicate, read-out: % inhibition of control values
Procedure: as §1, §2, §3, §4, §5, §6

CDC2/CDK1 (h) (cycB) = CDC2/CDK1 (h) (cycB) (Homo sapiens (Human), UniProt P06493); assay: Kinase selectivity panel: CDC2/CDK1 (h) (cycB); type: biochemical; details: 10 μM in duplicate, read-out: % inhibition of control values
Chain of CDC2/CDK1 (h) (cycB) (P06493 whole entry): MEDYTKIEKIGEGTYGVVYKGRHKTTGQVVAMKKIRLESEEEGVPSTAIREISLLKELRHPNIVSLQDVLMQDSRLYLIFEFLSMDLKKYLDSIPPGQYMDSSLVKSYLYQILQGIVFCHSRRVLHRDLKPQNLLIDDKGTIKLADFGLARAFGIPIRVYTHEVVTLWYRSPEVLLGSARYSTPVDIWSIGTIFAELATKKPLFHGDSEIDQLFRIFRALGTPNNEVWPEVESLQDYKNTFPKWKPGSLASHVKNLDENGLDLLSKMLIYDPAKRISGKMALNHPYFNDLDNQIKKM
Chain of CDC2/CDK1 (h) (cycB) (P14635 whole entry partner): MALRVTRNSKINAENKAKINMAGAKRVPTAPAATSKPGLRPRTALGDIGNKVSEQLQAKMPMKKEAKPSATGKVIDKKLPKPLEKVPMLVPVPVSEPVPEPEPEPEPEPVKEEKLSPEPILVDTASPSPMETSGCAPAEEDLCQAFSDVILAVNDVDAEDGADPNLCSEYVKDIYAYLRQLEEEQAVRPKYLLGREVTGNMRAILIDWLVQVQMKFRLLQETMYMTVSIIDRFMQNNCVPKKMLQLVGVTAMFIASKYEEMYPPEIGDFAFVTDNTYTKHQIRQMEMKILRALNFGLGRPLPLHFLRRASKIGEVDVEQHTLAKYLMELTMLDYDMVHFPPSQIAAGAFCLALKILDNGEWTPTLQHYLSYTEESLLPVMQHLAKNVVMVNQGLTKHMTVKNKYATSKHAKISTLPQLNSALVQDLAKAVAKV
Procedure: as §1, §2, §3, §4, §5, §6

AMPKalpha = assay: Kinase selectivity panel: AMPKalpha; type: biochemical, human; details: 10 μM in duplicate
Procedure: as §1, §2, §3, §4, §5, §6

MYT1 kinase (h) = MYT1 kinase (h) (Homo sapiens (Human), UniProt Q99640); assay: Kinase selectivity panel: MYT1 kinase (h); type: biochemical; details: 10 μM in duplicate, read-out: % inhibition of control values
Chain of MYT1 kinase (h) (Q99640 whole entry): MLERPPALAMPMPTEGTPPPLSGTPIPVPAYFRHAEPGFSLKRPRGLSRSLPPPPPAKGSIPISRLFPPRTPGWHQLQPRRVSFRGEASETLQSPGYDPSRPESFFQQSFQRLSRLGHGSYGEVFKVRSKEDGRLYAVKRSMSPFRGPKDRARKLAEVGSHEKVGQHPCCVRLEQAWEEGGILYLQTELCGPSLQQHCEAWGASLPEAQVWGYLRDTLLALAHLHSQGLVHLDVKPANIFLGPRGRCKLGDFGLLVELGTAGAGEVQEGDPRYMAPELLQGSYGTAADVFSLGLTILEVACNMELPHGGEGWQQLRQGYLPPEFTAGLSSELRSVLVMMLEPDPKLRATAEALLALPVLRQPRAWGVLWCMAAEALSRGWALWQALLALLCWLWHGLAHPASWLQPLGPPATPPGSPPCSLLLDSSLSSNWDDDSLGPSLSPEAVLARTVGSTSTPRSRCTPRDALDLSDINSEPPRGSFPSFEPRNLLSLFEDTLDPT
Procedure: as §1, §2, §3, §4, §5, §6

mTOR kinase (h) (FRAP1) = mTOR kinase (h) (FRAP1) (Homo sapiens (Human), UniProt P42345); assay: Kinase selectivity panel: mTOR kinase (h) (FRAP1); type: biochemical; details: 10 μM in duplicate, read-out: % inhibition of control values
Procedure: as §1, §2, §3, §4, §5, §6

RSK2 (h) = RSK2 (h) (Homo sapiens (Human), UniProt P51812); assay: Kinase selectivity panel: RSK2 (h); type: biochemical; details: 10 μM in duplicate, read-out: % inhibition of control values
Procedure: as §1, §2, §3, §4, §5, §6

NEK1 (h) = NEK1 (h) (Homo sapiens (Human), UniProt Q96PY6); assay: Kinase selectivity panel: NEK1 (h); type: biochemical; details: 10 μM in duplicate, read-out: % inhibition of control values
Procedure: as §1, §2, §3, §4, §5, §6

p38alpha kinase (h) = p38alpha kinase (h) (Homo sapiens (Human), UniProt Q16539); assay: Kinase selectivity panel: p38alpha kinase (h); type: biochemical; details: 10 μM in duplicate, read-out: % inhibition of control values
Procedure: as §1, §2, §3, §4, §5, §6

DAPK1 (h) = DAPK1 (h) (Homo sapiens (Human), UniProt P53355); assay: Kinase selectivity panel: DAPK1 (h); type: biochemical; details: 10 μM in duplicate, read-out: % inhibition of control values
Procedure: as §1, §2, §3, §4, §5, §6

PCTAIRE1 kinase (h) = PCTAIRE1 kinase (h) (Homo sapiens (Human), UniProt Q00536); assay: Kinase selectivity panel: PCTAIRE1 kinase (h); type: biochemical; details: 10 μM in duplicate, read-out: % inhibition of control values
Chain of PCTAIRE1 kinase (h) (Q00536 whole entry): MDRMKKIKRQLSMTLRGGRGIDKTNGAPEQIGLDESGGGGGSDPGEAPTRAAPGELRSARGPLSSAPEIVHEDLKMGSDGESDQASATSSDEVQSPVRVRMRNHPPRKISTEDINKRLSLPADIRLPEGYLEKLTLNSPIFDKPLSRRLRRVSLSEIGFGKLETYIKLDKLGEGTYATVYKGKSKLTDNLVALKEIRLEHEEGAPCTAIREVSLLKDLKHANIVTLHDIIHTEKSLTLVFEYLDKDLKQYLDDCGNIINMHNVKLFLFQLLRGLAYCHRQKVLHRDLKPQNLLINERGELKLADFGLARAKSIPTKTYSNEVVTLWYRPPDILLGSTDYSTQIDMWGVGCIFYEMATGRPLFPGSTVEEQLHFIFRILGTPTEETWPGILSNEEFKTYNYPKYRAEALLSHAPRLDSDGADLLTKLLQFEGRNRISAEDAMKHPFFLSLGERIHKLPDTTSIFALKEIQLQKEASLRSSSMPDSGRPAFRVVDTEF
Procedure: as §1, §2, §3, §4, §5, §6

IKKepsilon (h) (IKBKE) = IKKepsilon (h) (IKBKE) (Homo sapiens (Human), UniProt Q14164); assay: Kinase selectivity panel: IKKepsilon (h) (IKBKE); type: biochemical; details: 10 μM in duplicate, read-out: % inhibition of control values
Chain of IKKepsilon (h) (IKBKE) (Q14164 whole entry): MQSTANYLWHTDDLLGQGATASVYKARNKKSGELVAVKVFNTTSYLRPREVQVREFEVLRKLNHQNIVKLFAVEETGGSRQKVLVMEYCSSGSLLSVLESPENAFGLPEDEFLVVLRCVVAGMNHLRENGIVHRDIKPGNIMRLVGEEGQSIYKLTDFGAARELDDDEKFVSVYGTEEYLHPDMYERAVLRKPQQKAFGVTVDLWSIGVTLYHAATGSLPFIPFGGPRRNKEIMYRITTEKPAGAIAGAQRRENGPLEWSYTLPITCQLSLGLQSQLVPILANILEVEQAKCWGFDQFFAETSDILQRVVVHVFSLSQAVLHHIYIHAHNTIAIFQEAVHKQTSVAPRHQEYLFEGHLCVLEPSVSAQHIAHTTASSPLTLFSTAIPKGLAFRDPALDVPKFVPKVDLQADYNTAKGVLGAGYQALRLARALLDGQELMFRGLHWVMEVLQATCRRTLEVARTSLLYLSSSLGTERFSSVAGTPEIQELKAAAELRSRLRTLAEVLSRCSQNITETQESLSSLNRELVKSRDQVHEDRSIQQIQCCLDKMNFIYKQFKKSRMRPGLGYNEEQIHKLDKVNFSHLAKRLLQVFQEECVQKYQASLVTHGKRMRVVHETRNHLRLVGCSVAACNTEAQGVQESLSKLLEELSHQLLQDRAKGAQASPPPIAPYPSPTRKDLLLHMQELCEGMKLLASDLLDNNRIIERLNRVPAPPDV
Procedure: as §1, §2, §3, §4, §5, §6

CHK1 (h) = CHK1 (h) (Homo sapiens (Human), UniProt O14757); assay: Kinase selectivity panel: CHK1 (h); type: biochemical; details: 10 μM in duplicate, read-out: % inhibition of control values
Procedure: as §1, §2, §3, §4, §5, §6

PKCgamma (h) = PKCgamma (h) (Homo sapiens (Human), UniProt P05129); assay: Kinase selectivity panel: PKCgamma (h); type: biochemical; details: 10 μM in duplicate, read-out: % inhibition of control values
Procedure: as §1, §2, §3, §4, §5, §6

TAOK2 (TAO1) (h) = TAOK2 (TAO1) (h) (Homo sapiens (Human), UniProt Q9UL54); assay: Kinase selectivity panel: TAOK2 (TAO1) (h); type: biochemical; details: 10 μM in duplicate, read-out: % inhibition of control values
Procedure: as §1, §2, §3, §4, §5, §6

Pim1 kinase (h) = Pim1 kinase (h) (Homo sapiens (Human), UniProt P11309); assay: Kinase selectivity panel: Pim1 kinase (h); type: biochemical; details: 10 μM in duplicate, read-out: % inhibition of control values
Procedure: as §1, §2, §3, §4, §5, §6

PKA (h) = PKA (h) (Homo sapiens (Human), UniProt P17612); assay: Kinase selectivity panel: PKA (h); type: biochemical; details: 10 μM in duplicate, read-out: % inhibition of control values
Procedure: as §1, §2, §3, §4, §5, §6

PDK1 (h) = PDK1 (h) (Homo sapiens (Human), UniProt O15530); assay: Kinase selectivity panel: PDK1 (h); type: biochemical; details: 10 μM in duplicate, read-out: % inhibition of control values
Procedure: as §1, §2, §3, §4, §5, §6

EphB2 kinase (h) = EphB2 kinase (h) (Homo sapiens (Human), UniProt P29323); assay: Kinase selectivity panel: EphB2 kinase (h); type: biochemical; details: 10 μM in duplicate, read-out: % inhibition of control values
Procedure: as §1, §2, §3, §4, §5, §6

ERK1 (h) = ERK1 (h) (Homo sapiens (Human), UniProt P27361); assay: Kinase selectivity panel: ERK1 (h); type: biochemical; details: 10 μM in duplicate, read-out: % inhibition of control values
Chain of ERK1 (h) (P27361 whole entry): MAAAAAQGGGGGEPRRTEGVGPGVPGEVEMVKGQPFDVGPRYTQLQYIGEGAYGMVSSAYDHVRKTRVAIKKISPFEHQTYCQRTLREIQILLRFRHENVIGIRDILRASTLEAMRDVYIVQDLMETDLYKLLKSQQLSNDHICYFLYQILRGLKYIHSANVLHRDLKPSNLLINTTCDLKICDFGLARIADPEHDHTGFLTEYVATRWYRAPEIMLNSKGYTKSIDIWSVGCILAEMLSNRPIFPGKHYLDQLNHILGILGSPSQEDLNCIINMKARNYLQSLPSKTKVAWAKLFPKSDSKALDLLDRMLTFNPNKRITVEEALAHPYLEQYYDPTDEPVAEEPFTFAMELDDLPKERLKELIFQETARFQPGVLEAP
Procedure: as §1, §2, §3, §4, §5, §6

GRK3/BARK2 (h) (ADRBK2) = GRK3/BARK2 (h) (ADRBK2) (Homo sapiens (Human), UniProt P35626); assay: Kinase selectivity panel: GRK3/BARK2 (h) (ADRBK2); type: biochemical; details: 10 μM in duplicate, read-out: % inhibition of control values
Procedure: as §1, §2, §3, §4, §5, §6

PhKgamma 2 (h) = PhKgamma 2 (h) (Homo sapiens (Human), UniProt P15735); assay: Kinase selectivity panel: PhKgamma 2 (h); type: biochemical; details: 10 μM in duplicate, read-out: % inhibition of control values
Procedure: as §1, §2, §3, §4, §5, §6

IKKalpha (h) = IKKalpha (h) (Homo sapiens (Human), UniProt O15111); assay: Kinase selectivity panel: IKKalpha (h); type: biochemical; details: 10 μM in duplicate, read-out: % inhibition of control values
Procedure: as §1, §2, §3, §4, §5, §6

FGFR4 kinase (h) = FGFR4 kinase (h) (Homo sapiens (Human), UniProt P22455); assay: Kinase selectivity panel: FGFR4 kinase (h); type: biochemical; details: 10 μM in duplicate, read-out: % inhibition of control values
Procedure: as §1, §2, §3, §4, §5, §6

MEK1/MAP2K1 (h) = MEK1/MAP2K1 (h) (Homo sapiens (Human), UniProt Q02750); assay: Kinase selectivity panel: MEK1/MAP2K1 (h); type: biochemical; details: 10 μM in duplicate, read-out: % inhibition of control values
Procedure: as §1, §2, §3, §4, §5, §6

Chain of PAK1 (h) (Q13153 whole entry): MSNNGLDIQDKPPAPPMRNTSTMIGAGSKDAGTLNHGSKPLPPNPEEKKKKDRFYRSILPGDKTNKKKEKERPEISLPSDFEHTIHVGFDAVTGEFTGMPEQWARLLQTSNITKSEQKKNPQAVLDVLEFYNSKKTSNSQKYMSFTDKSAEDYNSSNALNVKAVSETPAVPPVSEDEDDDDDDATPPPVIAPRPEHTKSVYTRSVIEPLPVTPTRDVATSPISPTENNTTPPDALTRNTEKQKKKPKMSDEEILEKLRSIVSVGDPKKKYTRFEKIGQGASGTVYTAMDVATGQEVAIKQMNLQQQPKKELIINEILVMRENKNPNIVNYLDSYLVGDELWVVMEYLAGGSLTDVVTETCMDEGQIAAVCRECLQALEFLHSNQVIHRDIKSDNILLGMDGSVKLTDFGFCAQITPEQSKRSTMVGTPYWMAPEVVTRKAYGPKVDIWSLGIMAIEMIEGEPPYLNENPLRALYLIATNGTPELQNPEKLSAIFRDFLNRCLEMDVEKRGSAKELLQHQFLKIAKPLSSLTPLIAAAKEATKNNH

COCCN1CCC(CNC(=O)c2n[nH]c3ccc(OC)cc23)CC1 [Compound 2, 5-methoxy-N-{[1-(2-methoxyethyl)-piperidin-4-yl]methyl}-1H-indazole-3-carboxamide]
inhibition at 10 µM (PAK1 (h)): 0%
inhibition at 10 µM (smMLCK (h) (MYLK)): 8%
inhibition at 10 µM (CaMK4 (h)): 0%
inhibition at 10 µM (AurB/Aur1 kinase (h)): 6%
inhibition at 10 µM (DYRK1a (h)): 56%
inhibition at 10 µM (AurA/Aur2 kinase (h)): 1%
inhibition at 10 µM (p38gamma kinase (h)): 0%
inhibition at 10 µM (MSK1 (h)): 16%
inhibition at 10 µM (JAK2 (h)): 0%
inhibition at 10 µM (NEK7 (h)): 0%
inhibition at 10 µM (PKCbeta 1 (h)): 1%
inhibition at 10 µM (CDC2/CDK1 (h) (cycB)): 0%
% inhibition of control values (AMPKalpha): 19%
inhibition at 10 µM (MYT1 kinase (h)): 1%
inhibition at 10 µM (mTOR kinase (h) (FRAP1)): 2%
inhibition at 10 µM (RSK2 (h)): 1%
inhibition at 10 µM (NEK1 (h)): 0%
inhibition at 10 µM (p38alpha kinase (h)): 0%
inhibition at 10 µM (DAPK1 (h)): 12%
inhibition at 10 µM (PCTAIRE1 kinase (h)): 71%
inhibition at 10 µM (IKKepsilon (h) (IKBKE)): 0%
inhibition at 10 µM (CHK1 (h)): 8%
inhibition at 10 µM (PKCgamma (h)): 0%
inhibition at 10 µM (TAOK2 (TAO1) (h)): 26%
inhibition at 10 µM (Pim1 kinase (h)): 2%
inhibition at 10 µM (PKA (h)): 2%
inhibition at 10 µM (PDK1 (h)): 6%
inhibition at 10 µM (EphB2 kinase (h)): 7%
inhibition at 10 µM (ERK1 (h)): 15%
inhibition at 10 µM (GRK3/BARK2 (h) (ADRBK2)): 0%
inhibition at 10 µM (PhKgamma 2 (h)): 1%
inhibition at 10 µM (IKKalpha (h)): 0%
inhibition at 10 µM (FGFR4 kinase (h)): 0%
inhibition at 10 µM (MEK1/MAP2K1 (h)): 9%
